# Patent US20090142429A1, “SILICIBACTER SP. STRAIN USEFUL FOR GENETIC TRANSFORMATION OF MARINE ALGAE AND PRODUCTION OF ANTIBIOTIC AGENTS” (UNIVERSITY OF MARYLAND BIOTECHNOLOGY INSTITUTE, priority 2005, published 2009)
# “And” between values parts separate entries of the source, which are not always exact repeats. Identical values can stand only once.
# Legend:
# [1] = test system: Silicibacter sp. strain TM1040; assay: Chemotaxis plate screening assay (change in motile colony morphology); type: cell-based; conditions: for Change in morphology with carbon source Alanine / Change in morphology with carbon source Glucose / Change in morphology with carbon source Glycerol / Change in morphology with carbon source Succinate: BM motility agar; for Change in morphology with carbon source Alanine: alanine as single carbon source; for Change in morphology with carbon source Glucose: glucose as single carbon source; for Change in morphology with carbon source Glycerol: glycerol as single carbon source; for Change in morphology with carbon source Succinate: succinate as single carbon source; as to Change in morphology with carbon source Alanine: key: −: minus indicates no change compared to distilled water or no attractant controls; +: either one or two pluses indicates moderate to strong alteration in motile colony phenotype (respectively); ++: either one or two pluses indicates moderate to strong alteration in motile colony phenotype (respectively); as to Change in morphology with carbon source Glucose: key: −: minus indicates no change compared to distilled water or no attractant controls; +: either one or two pluses indicates moderate to strong alteration in motile colony phenotype (respectively); ++: either one or two pluses indicates moderate to strong alteration in motile colony phenotype (respectively); as to Change in morphology with carbon source Glycerol: key: −: minus indicates no change compared to distilled water or no attractant controls; +: either one or two pluses indicates moderate to strong alteration in motile colony phenotype (respectively); ++: either one or two pluses indicates moderate to strong alteration in motile colony phenotype (respectively); as to Response: change in motile colony morphology of TM1040 in response to attractants, compared to the control: key: −: minus indicates no change compared to distilled water or no attractant controls; +: either one or two pluses indicates moderate to strong alteration in motile colony phenotype (respectively); ++: either one or two pluses indicates moderate to strong alteration in motile colony phenotype (respectively)
# Method: Following 36 h of incubation, a putative attractant was placed approximately 5 cm from the site of inoculation (or 2.5 cm in front of the periphery of motile cells). Possible chemoattractant compounds were administered as either a sterile solid or concentrated stock solutions. The cells were further incubated for 16 h to allow for additional outward movement, at which time measurement of diameter, shape, and chemotaxis rings internal to the motile colony were made.
# […] Bacteria inoculated into the center of the agar consume nutrients and create a concentration gradient that increases outward from the point of inoculation. The bacteria sense the increasing gradient and swim outwards, seeking higher concentrations of nutrients, which is manifested as a symmetrical “motile” colony. If an attractant is placed at a short distance in front of the advancing motile colony, it forms a second gradient moving towards the oncoming cells that will affect the symmetry of the colony by reducing the net outward swimming of the bacteria.
# [2] = test system: Silicibacter sp. strain TM1040; assay: Quantitative capillary chemotaxis assay; type: cell-based; conditions: pure compounds, FIG. 12; capillaries filled with 2 μM or 200 μM attractant
# Source text: The cells were pelleted by centrifugation at 4,000×g in a tabletop centrifuge (Centra-CL2; International Equipment Company), the supernatant was discarded, and the pellet was resuspended in chemotaxis buffer (CB) (15 g of ASW, 6 g of Tris-HCl per liter [pH 7.6]) to the same OD. Five hundred microliters of washed cells was placed in one of the wells of the Palleroni chamber, followed by a 1-μl capillary (Microcaps; Drummond) filled with a putative attractant diluted in CB. This process was repeated for each of the four wells in the chamber. A capillary filled with CB only was included in each experiment as a negative control. Depending on the experiment, capillaries remained in the chambers for 0.5 to 2 h, after which time they were removed, and the contents of each capillary were serially diluted in CB. Final dilutions were then spread on HIASW agar plates and incubated for 16 h at 30° C. The concentration of TM1040 in each capillary was derived by counting the CFU on each plate and multiplying by the appropriate dilution factor. […]
# [3] = test system: Silicibacter sp. strain TM1040; assay: Capillary assay: reduction in chemotaxis toward P. piscicida homogenates by externally supplied attractant; type: cell-based; conditions: for % Reduction in CFU per capillary compared to the control / No. of bacteria per capillary (CFU · 10^4), attractant added to external buffer: 200 μM attractant in external buffer; for No. of bacteria per capillary (CFU · 10^4), attractant added to external buffer: SD in parentheses; for mean number of bacteria in the untreated capillaries: untreated homogenate, attractant supplied externally in the buffer
# Method: The capillary assay was also used to measure the reduction in chemotaxis through competition when a known attractant was supplied exogenously (i.e., outside the capillary). In this variation, the quantitative capillary method was used, but a known attractant was included in the CB used to suspend the washed cells. A capillary containing a mixture of potential chemoattractant molecules was then placed in the chamber and incubated as described earlier. At the completion of the assay, the percent reduction in chemotaxis was calculated using the following formula: % reduction=[1−(CFU ml^−1exogenous/CFU ml^−1control)]×(100).
# Dinoflagellates and Rhodomonas sp. were grown to late exponential phase (ca. 10^5 to 10^6 cells per ml), and the cell density was measured using a Coulter Counter (model M/SZRII; Beckman Coulter). Dinoflagellates were harvested after starvation of the culture to remove Rhodomonas prey algae, which was confirmed by microscopy. The cell densities in P. piscicida and Rhodomonas cultures were normalized to 10^5 cells per ml, and each culture was then pelleted by centrifugation at 4,000×g and 4° C. for 10 min. The supernatant was removed, and the pellets were separately resuspended with either 1 ml of ice-cold distilled water or CB. The cells were homogenized by sonication (Sonic Dismembrator; Fisher), and cell disruption was assessed by microscopy. To examine the heat sensitivity of chemotaxis elicitors, an aliquot of each homogenate was heated to 80° C. for 15 min prior to the assay. All homogenates were then stored at −20° C. When required, the homogenates were thawed, held on ice, and used in the capillary assay as described.
# [4] = Destruction of DMSP by heating (GC-FID); type: physicochemical
# Method: The concentration of DMSP in 1 ml-samples of heated or boiled 200 μM DMSP and in heated and untreated P. piscicida homogenates was measured using gas chromatography with flame ionization detection, as previously described.
# Destruction of 200 μM DMSP in CB was assessed after heating the samples to either 80 or 100° C. for 15 min. At both temperatures, negligible (<2%) loss of DMSP was observed.
# An alternative explanation for why heat reduced the chemoattractant quality of the homogenates is that heat acts indirectly through an intermediate to inactivate DMSP. This hypothesis predicts that the concentration of DMSP decreases when a homogenate is heated. The DMSP concentration in untreated and heated homogenates was measured. In untreated P. piscicida homogenates the mean concentration of DMSP was 8.21±1.2 μM. After the homogenate was heated, the concentration of DMSP fell below the level of detectability (<1 μM).
# [5] = heated (80° C. for 15 min) P. piscicida homogenate
# [6] = untreated P. piscicida homogenate
smiles,measurement,setting,value
CC(C)[C@H](N)C(=O)O [valine],"Response: change in motile colony morphology of TM1040 in response to attractants, compared to the control",[1]; BM glycerol motility agar,++
same,chemotactic response of TM1040 in plate assay,[1]; BM glycerol motility agar,significant effects on the periphery of the motile colony
same,Change in morphology with carbon source Alanine,[1],+
same,Change in morphology with carbon source Glucose,[1],−
same,Change in morphology with carbon source Glycerol,[1],++
same,Change in morphology with carbon source Succinate,[1],+
same,response factor (mean),[2],6.1
same,% Reduction in CFU per capillary compared to the control,[3]; [5],74%
same,"No. of bacteria per capillary (CFU · 10^4), attractant added to external buffer",[3]; [5],0.91 (±0.24) CFU · 10^4
same,% Reduction in CFU per capillary compared to the control,"[3]; heated (80° C. for 15 min) P. piscicida homogenate, listed as Valine",74.07%
same,% Reduction in CFU per capillary compared to the control,[3]; [6],78%
same,"No. of bacteria per capillary (CFU · 10^4), attractant added to external buffer",[3]; [6],1.53 (±0.15) CFU · 10^4
same,% Reduction in CFU per capillary compared to the control,"[3]; untreated P. piscicida homogenate, listed as Valine",78.87%
same,mean number of bacteria in the untreated capillaries,[3],1.53×10^4 CFU per ml
N[C@@H](CO)C(=O)O [serine],"Response: change in motile colony morphology of TM1040 in response to attractants, compared to the control",[1]; BM glycerol motility agar,+
CC[C@H](C)[C@H](N)C(=O)O [isoleucine],"Response: change in motile colony morphology of TM1040 in response to attractants, compared to the control",[1]; BM glycerol motility agar,+
NCC(=O)O [Glycine],"Response: change in motile colony morphology of TM1040 in response to attractants, compared to the control",[1]; BM glycerol motility agar,+
same,response factor (mean),[2],ca. 3.5
C=CC(=O)O [acrylate],"Response: change in motile colony morphology of TM1040 in response to attractants, compared to the control",[1]; BM glycerol motility agar,++
same,chemotactic response of TM1040 in plate assay,[1]; BM glycerol motility agar,responded strongly
same,Change in morphology with carbon source Alanine,[1],+
same,Change in morphology with carbon source Glucose,[1],+
same,Change in morphology with carbon source Glycerol,[1],++
same,Change in morphology with carbon source Succinate,[1],++
same,chemotactic response of TM1040 in plate assay,[1]; glucose background (BM glucose),moderate response
N=C(N)NCCC[C@H](N)C(=O)O [arginine],"Response: change in motile colony morphology of TM1040 in response to attractants, compared to the control",[1]; BM glycerol motility agar,++
O=C(O)/C=C/C(=O)O [fumurate],"Response: change in motile colony morphology of TM1040 in response to attractants, compared to the control",[1]; BM glycerol motility agar,++
same,chemotactic response of TM1040 in plate assay,[1]; BM glycerol motility agar,strong positive response
CC(C)C[C@H](N)C(=O)O [leucine],"Response: change in motile colony morphology of TM1040 in response to attractants, compared to the control",[1]; BM glycerol motility agar,+
N[C@@H](Cc1ccc(O)cc1)C(=O)O [tyrosine],"Response: change in motile colony morphology of TM1040 in response to attractants, compared to the control",[1]; BM glycerol motility agar,+
"C[S+](C)CCC(=O)[O-] [DMSP, Dimethylsulfoniopropionate]",loss of DMSP,[4]; 200 μM DMSP in CB heated to either 80 or 100° C. for 15 min,< 2%
same,concentration of DMSP in P. piscicida homogenates,"[4]; after the homogenate was heated, level of detectability",< 1 µM
same,mean concentration of DMSP in P. piscicida homogenates,[4]; untreated homogenate,8.21 ± 1.2 µM
same,"Response: change in motile colony morphology of TM1040 in response to attractants, compared to the control",[1]; BM glycerol motility agar,++
same,chemotactic response of TM1040 in plate assay,[1]; BM glycerol motility agar,marked deformation in the periphery of the motile colony
same,Change in morphology with carbon source Alanine,[1],+
same,Change in morphology with carbon source Glucose,[1],−
same,Change in morphology with carbon source Glycerol,[1],++
same,Change in morphology with carbon source Succinate,[1],+
same,response factor (mean),[2],8.2
same,% Reduction in CFU per capillary compared to the control,[3]; [5],11% and 11.68%
same,"No. of bacteria per capillary (CFU · 10^4), attractant added to external buffer",[3]; [5],3.10 (±0.16) CFU · 10^4
same,% Reduction in CFU per capillary compared to the control,[3]; [6],54% and 54.01%
same,"No. of bacteria per capillary (CFU · 10^4), attractant added to external buffer",[3]; [6],3.33 (±0.15) CFU · 10^4
same,mean number of bacteria in the untreated capillaries,[3],3.33×10^4 CFU per ml
N[C@@H](Cc1ccccc1)C(=O)O [phenylalanine],"Response: change in motile colony morphology of TM1040 in response to attractants, compared to the control",[1]; BM glycerol motility agar,++
